Experimental data reported in patent US20060122191A1, “N-(indolethyl-)cycloamine compounds” (priority 2002, published 2006).
Counter-ions that a name gives are not always drawn. Like-named read-outs stand apart in the source and are kept apart here.

Tests used:
[1] = target: T1, serotonin reuptake (SSRI) (Rattus norvegicus, UniProt P31652); assay: Serotonin reuptake inhibition (SSRI), receptor binding studies; type: biochemical
T1 construct: from tissue
Source text: (§1) In-vitro evidence of interaction with the above-mentioned receptors can be provided, for example, as described in the following references: • 5-HT1A: Cossery J. M., Gozlan H., Spampinato U., Perdicakis C., Guillaumet G., Pichat L., Hamon M., 1987. The selective labeling of central 5-HT1A receptor binding sites by [3H]5-methoxy-3-(di-n-propylamino)chroman. Eur. J. Pharmacol. 140,143-55. • 5-HT2A: Klockow M., Greiner H. E., Haase A., Schmitges C.-J., Seyfried C. 1986. Studies on the receptor profile of bisoprolol. Arzneimittelforschung 36,197-200. • SSRI: Wong, D T, Bymaster, F P, Mayle, D A. Reid, L R, Krushinski, J H, Robertson, D W. LY248686, a new inhibitor of serotonin and norepinephrine uptake. Neuropsychopharmacology 8, 23-33, 1993
(§2) As illustrative of two compounds of the formula I, receptor binding constants determined by the test systems described at the outset are indicated below: […]

5-HT1A = target: T2, 5-HT1A (Rattus norvegicus, UniProt P19327); assay: 5-HT1A receptor binding
T2 construct: from tissue
T2 sequence (P19327 1-422): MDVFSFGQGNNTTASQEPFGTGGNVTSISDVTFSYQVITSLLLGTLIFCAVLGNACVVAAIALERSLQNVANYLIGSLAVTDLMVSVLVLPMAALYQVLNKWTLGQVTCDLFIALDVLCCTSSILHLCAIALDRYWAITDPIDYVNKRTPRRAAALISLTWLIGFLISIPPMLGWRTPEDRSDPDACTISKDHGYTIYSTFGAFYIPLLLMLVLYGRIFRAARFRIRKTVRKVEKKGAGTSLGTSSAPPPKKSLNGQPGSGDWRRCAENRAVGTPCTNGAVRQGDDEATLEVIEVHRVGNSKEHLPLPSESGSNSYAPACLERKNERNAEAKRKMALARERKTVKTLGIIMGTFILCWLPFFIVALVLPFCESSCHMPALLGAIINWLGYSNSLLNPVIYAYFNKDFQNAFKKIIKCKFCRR
Source text: as §1, §2

5-HT2A = 5-HT2A (UniProt P14842); assay: 5-HT2A receptor binding
Source text: as §1, §2

T1 sequence (P31652 whole entry): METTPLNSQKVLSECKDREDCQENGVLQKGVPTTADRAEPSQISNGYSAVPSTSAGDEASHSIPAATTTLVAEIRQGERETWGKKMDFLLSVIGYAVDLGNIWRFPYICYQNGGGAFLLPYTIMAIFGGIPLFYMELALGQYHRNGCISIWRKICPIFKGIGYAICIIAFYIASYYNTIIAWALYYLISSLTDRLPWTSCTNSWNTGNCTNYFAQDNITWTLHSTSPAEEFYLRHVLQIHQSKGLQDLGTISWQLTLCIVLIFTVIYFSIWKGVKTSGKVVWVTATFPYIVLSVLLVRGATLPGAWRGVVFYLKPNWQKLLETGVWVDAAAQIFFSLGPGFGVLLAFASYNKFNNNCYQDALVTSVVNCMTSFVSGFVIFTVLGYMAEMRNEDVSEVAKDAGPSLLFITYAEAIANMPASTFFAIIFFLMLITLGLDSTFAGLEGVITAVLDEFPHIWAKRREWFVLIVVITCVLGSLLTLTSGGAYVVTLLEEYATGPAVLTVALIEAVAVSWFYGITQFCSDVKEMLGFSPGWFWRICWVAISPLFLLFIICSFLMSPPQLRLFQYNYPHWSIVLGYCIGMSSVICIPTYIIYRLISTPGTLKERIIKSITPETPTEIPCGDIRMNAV

SMILES: N#Cc1ccc2[nH]cc(CCN3CCN(c4cccc5c4OCCO5)CC3)c2c1 (as salt: hydrochloride) [a), 3-{2-[4-(2,3-Dihydrobenzo-1,4-dioxin-5-yl)piperazin-1-yl]ethyl}-1H-indole-5-carbonitrile]
- melting point: 277.5 to 278.5 °C

SMILES: N#Cc1ccc2[nH]cc(CCN3CCN(c4cccc5c4OCCO5)CC3)c2c1 [a), 3-{2-[4-(2,3-Dihydrobenzo-1,4-dioxin-5-yl)piperazin-1-yl]ethyl}-1H-indole-5-carbonitrile]
- Ki ([1]; test system per Wong et al. 1993, read-out: receptor binding constant SSRI): 11 nM
- Ki (5-HT1A): 17 nM
- Ki (5-HT2A; test system per Klockow et al. 1986; read-out: receptor binding constant 5-HT2A): 11 nM

SMILES: N#Cc1ccc2[nH]cc(CCN3CCN(c4cccc5nsnc45)CC3)c2c1 [b), 3-[2-(4-Benzo-1,2,5-thiadiazol-4-yl-piperazin-1-yl)ethyl]-1H-indole-5-carbonitrile]
- Ki [1]: 4.3 nM
- Ki (5-HT1A; test system per Cossery et al. 1987, read-out: receptor binding constant 5-HT1A): 110 nM
- Ki (5-HT2A; read-out: receptor binding constant 5-HT2A; test system per Klockow et al. 1986): 7.3 nM
